Values quoted from earlier work as cited in patent publication US20040023897A1, “Methods for preventing or treating disease mediated by toxin-secreting bacteria” (priority 2001, published 2004).

What was measured:
V-ATPases [1] = system: V-ATPases
V-ATPases [2] = system: V-ATPases; remark: listed apart in the source

Row | Compound | concentration at which reversible inhibition of proton translocation occurs (V-ATPases [2]) | further results
1 | CCN1C(=O)C=CC1=O [N-ethylmaleimide] |  | concentration at which inhibition of ATP hydrolysis occurs (V-ATPases [1]): low micromolar concentrations
2 | C(=NC1CCCCC1)=NC1CCCCC1 [DCCD, N,N′-dicyclohexylcarbodiimide] |  | inhibition of proton pumping (V-ATPases [2]; micromolar concentrations of DCCD): complete and irreversible inhibition
3 | CO/C1=C\C(C)=C\[C@@H](C)[C@@H](O)[C@@H](C)C/C(C)=C/C=C/[C@H](OC)[C@@H]([C@@H](C)[C@@H](O)[C@H](C)[C@@]2(O)C[C@@H](O)[C@H](C)[C@@H](C(C)C)O2)OC1=O [Bafilomycin A1] | sub-micromolar concentrations | 
4 | C/C=C/[C@H]1O[C@@](O)([C@@H](C)[C@H](O)[C@H](C)[C@H]2OC(=O)/C(OC)=C/C(C)=C/[C@@H](C)[C@@H](O)[C@@H](CC)[C@@H](O)[C@H](C)C/C(C)=C/C=C/[C@@H]2OC)C[C@@H](O[C@H]2C[C@@H](O)[C@H](OC(N)=O)[C@@H](C)O2)[C@@H]1C [concanamycin A] | sub-micromolar concentrations | 
